Source: article PMC11200585, “Prospects for Prostate Cancer Chemotherapy: Cytotoxic Evaluation and Mechanistic Insights of Quinolinequinones with ADME/PK Profile” (Biomedicines, 2024)

Tests used:
Assay type in all cases: cell-based, human
[1] = system: HOP-92; assay: NCI-60 five-dose assay (non-small cell lung cancer); settings: 48 h, SRB
[2] = system: SK-MEL-5; assay: NCI-60 five-dose assay (melanoma); settings: 48 h, SRB
[3] = system: HOP-62; assay: NCI-60 five-dose assay (non-small cell lung cancer); settings: 48 h, SRB
[4] = system: OVCAR-4; assay: NCI-60 one-dose screen (ovarian cancer); settings: 10 µM single dose, 48 h
Experimental: (§1) The obtained quinolinequinones were submitted to NCI, Bethesda, USA, and, as per standard protocol of NCI, all compounds were evaluated for their antiproliferative activity at single-dose assay (10 µM concentration in DMSO) on a panel of 60 cancer cell lines derived from leukemia, non-small-cell lung, colon, CNS, melanoma, ovarian, renal, prostate, and breast, as per protocol. Tested compounds were added to the microtiter culture plates followed by incubation for 48 h at 37 °C. Sulforhodamine B (SRB), a protein-binding dye, is used for endpoint determination. The percent of the growth of the treated cells was determined in comparison to the untreated control cells and the results of each tested compound were reported. Data from one-dose experiments pertain to the percentage growth at 10 μM [16, 17, 18].

[5] = system: NCI/ADR-RES; assay: NCI-60 one-dose screen (ovarian cancer); settings: 10 µM single dose
Experimental: as §1

[6] = system: IGROV1; assay: NCI-60 one-dose screen (ovarian cancer); settings: 10 µM single dose, 48 h
Experimental: as §1

[7] = system: SK-OV-3; assay: NCI-60 one-dose screen (ovarian cancer); settings: 10 µM single dose, 48 h
Experimental: as §1

[8] = system: OVCAR-8; assay: NCI-60 one-dose screen (ovarian cancer); settings: 10 µM single dose
Experimental: as §1

[9] = system: OVCAR-5; assay: NCI-60 one-dose screen (ovarian cancer); settings: 10 µM single dose, 48 h
Experimental: as §1

[10] = system: SK-MEL-2; assay: NCI-60 five-dose assay (melanoma); settings: 48 h, SRB
[11] = system: MALME-3M; assay: NCI-60 five-dose assay (melanoma); settings: 48 h, SRB
[12] = system: SK-MEL-2; assay: NCI-60 one-dose screen (melanoma); settings: 10 µM single dose, 48 h
Experimental: as §1

[13] = system: UACC-62; assay: NCI-60 one-dose screen (melanoma); settings: 10 µM single dose, 48 h
Experimental: as §1

[14] = system: MALME-3M; assay: NCI-60 one-dose screen (melanoma); settings: 10 µM single dose, 48 h
Experimental: as §1

[15] = system: LOX IMVI; assay: NCI-60 one-dose screen (melanoma); settings: 10 µM single dose, 48 h
Experimental: as §1

[16] = system: MDA-MB-435; assay: NCI-60 one-dose screen (melanoma); settings: 10 µM single dose, 48 h
Experimental: as §1

[17] = system: SK-MEL-28; assay: NCI-60 one-dose screen (melanoma); settings: 10 µM single dose
Experimental: as §1

[18] = system: SK-MEL-5; assay: NCI-60 one-dose screen (melanoma); settings: 10 µM single dose, 48 h
Experimental: as §1

[19] = system: UACC-257; assay: NCI-60 one-dose screen (melanoma); settings: 10 µM single dose, 48 h
Experimental: as §1

[20] = system: SK-OV-3; assay: NCI-60 five-dose assay (ovarian cancer); settings: 48 h, SRB
[21] = system: 786-0; assay: NCI-60 five-dose assay (renal cancer); settings: 48 h, SRB
[22] = system: SNB-75; assay: NCI-60 five-dose assay (CNS cancer); settings: 48 h, SRB
[23] = system: NCI-H460; assay: NCI-60 five-dose assay (non-small cell lung cancer); settings: 48 h, SRB
[24] = system: RPMI-8226; assay: NCI-60 five-dose assay (leukemia); settings: 48 h, SRB
[25] = system: SR; assay: NCI-60 five-dose assay (leukemia); settings: 48 h, SRB
[26] = system: EKVX; assay: NCI-60 five-dose assay (non-small cell lung cancer); settings: 48 h, SRB
[27] = system: NCI-H322M; assay: as above; settings: 48 h, SRB
[28] = system: SNB-19; assay: NCI-60 five-dose assay (CNS cancer); settings: 48 h, SRB
[29] = system: SF-295; assay: NCI-60 one-dose screen (CNS cancer); settings: 10 µM single dose, 48 h
Experimental: as §1

[30] = system: SF-268; assay: NCI-60 one-dose screen (CNS cancer); settings: 10 µM single dose, 48 h
Experimental: as §1

[31] = system: SNB-75; assay: NCI-60 one-dose screen (CNS cancer); settings: 10 µM single dose, 48 h
Experimental: as §1

[32] = system: SF-539; assay: NCI-60 one-dose screen (CNS cancer); settings: 10 µM single dose
Experimental: as §1

[33] = system: U251; assay: NCI-60 one-dose screen (CNS cancer); settings: 10 µM single dose, 48 h
Experimental: as §1

[34] = system: SNB-19; assay: NCI-60 one-dose screen (CNS cancer); settings: 10 µM single dose, 48 h
Experimental: as §1

[35] = system: MDA-MB-468; assay: NCI-60 five-dose assay (breast cancer); settings: 48 h, SRB
[36] = system: RXF 393; assay: NCI-60 five-dose assay (renal cancer); settings: 48 h, SRB
[37] = system: HCC-2998; assay: NCI-60 five-dose assay (colon cancer); settings: 48 h, SRB
[38] = system: A498; assay: NCI-60 five-dose assay (renal cancer); settings: 48 h, SRB
[39] = Homo sapiens, read-out: LC50 (the source's name)

Compound: COc1ccccc1NC1=C(Cl)C(=O)c2nc(C)ccc2C1=O [AQQ1]
- TGI [1]: 3.30 µM
- GI50 ([1]; Homo sapiens): 1.85 µM
- LC50 (50% lethal concentration) ([1]; Homo sapiens): 5.91 µM
- TGI [2]: 3.17 µM
- GI50 ([2]; Homo sapiens): 1.75 µM
- CC50 [2, 39]: 5.74 µM
- TGI [3]: 6.98 µM
- GI50 ([3]; Homo sapiens): 2.41 µM
- LC50 (concentration killing 50% of cells) ([3]; Homo sapiens): 37.5 µM
- GP (growth percentage) [4]: −98.22%
- GP (growth percentage) ([5]; 48 h): 7.08%
- inhibition at 10 µM ([5]; Homo sapiens): 92.9%
- GP (growth percentage) [6]: −83.51%
- GP (growth percentage) [7]: 88.34%
- GP (growth percentage) ([8]; 48 h): 9.87%
- inhibition at 10 µM ([8]; Homo sapiens): 90.1%
- GP (growth percentage) [9]: 78.91%
- TGI [10]: 3.34 µM
- GI50 ([10]; Homo sapiens): 1.81 µM
- CC50 [10, 39]: 6.19 µM
- TGI [11]: 3.19 µM
- GI50 ([11]; Homo sapiens): 1.71 µM
- LC50 ([11]; Homo sapiens): 5.95 µM
- GP (growth percentage) [12]: 78.82%
- GP (growth percentage) [13]: −45.84%
- GP (growth percentage) [14]: −55.92%
- GP (growth percentage) [15]: −72.99%
- GP (growth percentage) [16]: −85.96%
- GP (growth percentage) ([17]; 48 h): 14.13%
- inhibition at 10 µM ([17]; Homo sapiens): 85.9%
- GP (growth percentage) [18]: −93.34%
- GP (growth percentage) [19]: −82.67%
- TGI [20]: 27.5 µM
- GI50 ([20]; Homo sapiens): 12.6 µM
- LC50 (50% net cell kill) ([20]; Homo sapiens): 59.8 µM
- TGI [21]: 3.61 µM
- GI50 ([21]; Homo sapiens): 1.91 µM
- LC50 ([21]; Homo sapiens): 6.82 µM
- TGI [22]: 2.84 µM
- GI50 ([22]; Homo sapiens): 1.5 µM
- LC50 (50% lethal concentration) ([22]; Homo sapiens): 5.39 µM
- TGI [23]: 12 µM
- GI50 ([23]; Homo sapiens): 3.22 µM
- CC50 [23, 39]: 52.7 µM
- TGI [24]: 4.61 µM
- GI50 ([24]; Homo sapiens): 1.57 µM
- CC50 [24, 39]: > 100 µM
- TGI [25]: 4.25 µM
- GI50 ([25]; Homo sapiens): 0.794 µM
- CC50 [25, 39]: > 100 µM
- TGI [26]: 3.05 µM
- GI50 ([26]; Homo sapiens): 1.61 µM
- CC50 [26, 39]: 5.78 µM
- TGI [27]: 7.69 µM
- GI50 ([27]; Homo sapiens): 2.5 µM
- CC50 [27, 39]: 27.6 µM
- TGI [28]: 3.72 µM
- GI50 ([28]; Homo sapiens): 1.81 µM
- CC50 [28, 39]: 7.64 µM
- GP (growth percentage) [29]: 96.61%
- GP (growth percentage) [30]: 47.42%
- GP (growth percentage) [31]: 105.38%
- GP (growth percentage) ([32]; 48 h): 1.78%
- inhibition at 10 µM ([32]; Homo sapiens): 98.2%
- GP (growth percentage) [33]: 62.79%
- GP (growth percentage) [34]: 38.92%
- TGI [35]: 3.06 µM
- GI50 ([35]; Homo sapiens): 1.52 µM
- LC50 ([35]; Homo sapiens): 6.16 µM
- TGI [36]: 2.76 µM
- GI50 ([36]; Homo sapiens): 1.42 µM
- LC50 ([36]; Homo sapiens): 5.36 µM
- TGI [37]: 3.46 µM
- GI50 ([37]; Homo sapiens): 1.87 µM
- LC50 (concentration killing 50% of cells) ([37]; Homo sapiens): 6.42 µM
- TGI [38]: 4.60 µM
- GI50 ([38]; Homo sapiens): 1.9 µM
- LC50 ([38]; Homo sapiens): 13.1 µM
